Measurements taken from US20090155784A1, “ASSESSMENT OF ASTHMA AND ALLERGEN-DEPENDENT GENE EXPRESSION” (Wyeth, priority 2007, published 2009).

Tested on: PBMCs from healthy volunteers
Assay: HG-U133A baseline gene expression in PBMCs of healthy volunteers (HV), cPLA2 inhibitor in the absence of allergen (no AG)
Assay type: cell-based, human
From the text: PBMCs were stimulated in vitro with a cocktail containing 4 different allergens from house dust mite, ragweed and cat. Recombinant allergens, Der p1, Der f2, Fel d1 (Indoor Biotech, Charlottesville, Va.) and natural ragweed allergen (Allergy Lab, Seattle, Wash.) were selected and screened for endotoxin contamination (LAL Endotoxin Test, Catalog #HIT302, sensitivity, 0.0001 Eu/ml, Cell Sciences, Canton, Mass.). The sensitivity of the subjects was unknown but the allergens were chosen based on the estimate that 80% of allergic individuals are believed to react to one or more of these allergens. Culture medium contained RPMI-1640 (Sigma) with 10% heat inactivated FCS (Sigma St. Louis, Mo.) and 100 unit/mL Penicillin and […] Streptomycin and 0.292 mg/mL Glutamine (GIBCO RL Invitrogen, Carlsbad, Calif.). The final allergen cocktail concentrations in culture medium were: Der p1 and Der f2 (dust mite), 1 mg/ml; Fel d1 (cat), 1.25 mg/ml; ragweed, 125 mg/ml. The total level of endotoxin contamination in culture medium was 0.057 Eu/ml. The cPLA2 inhibitor 4-{3-[1-benzhydryl-5-chloro-2-(2-{[(2,6-dimethylbenzyl)sulfonyl]amino}ethyl)-1H-indol-3-yl]propyl}benzoic acid was used at a concentration of 0.3 μM/ml. Zileuton, a 5-lipoxygenase inhibitor, was added at a concentration of 5 μM. The inhibitory activity of both the cPLA2 inhibitor and Zileuton samples were verified in a human whole blood assay. After 6 days in culture approximately 200 μL of supernatant was removed using an 8-channel pipettor without disturbing the cell pellet and placed into a collection plate for cytokine ELISA assays. To the remaining cell pellet 100 μL of RLT lysis buffer containing 1% beta-mercaptoethanol was added and snap frozen for RNA purification.
RNA was purified using QIA shredders and Rneasy mini kits (Qiagen, Valencia, Calif.). PBMC pellets frozen in RLT lysis buffer containing 1% β-mercaptoethanol were thawed and processed for total RNA isolation using the QIA shredder and RNeasy mini kit. A phenol:chloroform extraction was then performed, and the RNA was repurified using the RNeasy mini kit reagents. Eluted RNA was quantified using a Spectramax96 well plate UV reader (Molecular Devices, Sunnyvale, Calif., USA) monitoring A260/280 OD values. The quality of each RNA sample was assessed by capillary electrophoresis alongside an RNA molecular weight ladder on the Agilent 2100 bioanalyzer (Agilent Technologies, Palo Alto, Calif., USA). RNA samples were assigned quality values of intact (distinct 18S and 28S bands); partially degraded (discernible 18S and 28S bands with presence of low molecular weight bands) or completely degraded (no discernible 18S and 28S bands).
Labeled targets for oligonucleotide arrays were prepared using a modification of the procedure described by Lockhart et al. (Lockhart (1996) Nat. Biotechnol. 14:1675-80). Labeled targets were hybridized to the HG-U133A Affymetrix GeneChip Array as described in the Affymetrix technical manual. Eleven biotinylated control transcripts ranging in abundance from 3 parts per million (ppm) to 100 ppm were spiked into each sample to function as a standard curve (Hill (2001) Genome Biol. 2:RESEARCH0055). GeneChip MAS 5.0 software was used to evaluate the hybridization intensity, compute the signal value for each probe set and make an absent/present call.
GeneChips were required to pass the pre-set quality control criteria that the RNA quality metric required a 5′:3′ ratio. Two asthma subjects were excluded from the study due to failure to meet the RNA quality metric and 2 GeneChips from the group treated with cPLA2a inhibitor were excluded for the same reason. The signal value for each probe set was converted into a frequency value representative of the number of transcripts present in 10^6 transcripts by reference to the standard curve (Hill (2001) Genome Biol. 2:RESEARCH0055). […]

Cc1cccc(C)c1CS(=O)(=O)NCCc1c(CCCc2ccc(C(=O)O)cc2)c2cc(Cl)ccc2n1C(c1ccccc1)c1ccccc1 [cPLA2 inhibitor, 4-{3-[1-benzhydryl-5-chloro-2-(2-{[(2,6-dimethylbenzyl)sulfonyl]amino}ethyl)-1H-indol-3-yl]propyl}benzoic acid]
Fold Change cPLA2 inhibitor vs. no AG HV (probeset 208723_at, gene USP11): 1.191 fold
Fold Change cPLA2 inhibitor vs. no AG HV (probeset 208735_s_at, gene CTDSP2): 1.214 fold
Fold Change cPLA2 inhibitor vs. no AG HV (probeset 208881_x_at, gene IDI1): 1.288 fold
Fold Change cPLA2 inhibitor vs. no AG HV (probeset 208962_s_at, gene UNK_BE540552): 1.667 fold
Fold Change cPLA2 inhibitor vs. no AG HV (probeset 208963_x_at, gene FADS1): 1.668 fold
Fold Change cPLA2 inhibitor vs. no AG HV (probeset 208992_s_at, gene STAT3): 1.161 fold
Fold Change cPLA2 inhibitor vs. no AG HV (probeset 209417_s_at, gene IFI35): 1.367 fold
Fold Change cPLA2 inhibitor vs. no AG HV (probeset 209949_at, gene NCF2): 1.229 fold
Fold Change cPLA2 inhibitor vs. no AG HV (probeset 209969_s_at, gene STAT1): 1.315 fold
Fold Change cPLA2 inhibitor vs. no AG HV (probeset 210029_at, gene INDO): 2.207 fold
Fold Change cPLA2 inhibitor vs. no AG HV (probeset 210146_x_at, gene LILRB2): 1.473 fold
Fold Change cPLA2 inhibitor vs. no AG HV (probeset 210176_at, gene TLR1): 1.302 fold
Fold Change cPLA2 inhibitor vs. no AG HV (probeset 210495_x_at, gene FN1): −16.2745 fold
Fold Change cPLA2 inhibitor vs. no AG HV (probeset 210524_x_at, gene UNK_AF078844): 1.984 fold
Fold Change cPLA2 inhibitor vs. no AG HV (probeset 210754_s_at, gene LYN): 1.482 fold
Fold Change cPLA2 inhibitor vs. no AG HV (probeset 210784_x_at, gene LILRB3): 1.348 fold
Fold Change cPLA2 inhibitor vs. no AG HV (probeset 210962_s_at, gene AKAP9): −1.163 fold
Fold Change cPLA2 inhibitor vs. no AG HV (probeset 211133_x_at, gene LILRB3): 1.349 fold
Fold Change cPLA2 inhibitor vs. no AG HV (probeset 211135_x_at, gene LILRB3): 1.416 fold
Fold Change cPLA2 inhibitor vs. no AG HV (probeset 211456_x_at, gene UNK_AF333388): 2.494 fold
Fold Change cPLA2 inhibitor vs. no AG HV (probeset 211661_x_at, gene PTAFR): 1.264 fold
Fold Change cPLA2 inhibitor vs. no AG HV (probeset 211719_x_at, gene FN1): −18.8559 fold
Fold Change cPLA2 inhibitor vs. no AG HV (probeset 212066_s_at, gene USP34): −1.173 fold
Fold Change cPLA2 inhibitor vs. no AG HV (probeset 212185_x_at, gene MT2A): 2.359 fold
Fold Change cPLA2 inhibitor vs. no AG HV (probeset 212274_at, gene UNK_AV705559): 1.2259 fold
Fold Change cPLA2 inhibitor vs. no AG HV (probeset 212318_at, gene TNPO3): 1.195 fold
Fold Change cPLA2 inhibitor vs. no AG HV (probeset 212464_s_at, gene FN1): −16.6219 fold
Fold Change cPLA2 inhibitor vs. no AG HV (probeset 212859_x_at, gene MT2A): 2.114 fold
Fold Change cPLA2 inhibitor vs. no AG HV (probeset 212907_at, gene SLC30A1): 1.527 fold
Fold Change cPLA2 inhibitor vs. no AG HV (probeset 213571_s_at, gene EIF4EL3): 1.18 fold
Fold Change cPLA2 inhibitor vs. no AG HV (probeset 213629_x_at, gene MT1F): 1.953 fold
Fold Change cPLA2 inhibitor vs. no AG HV (probeset 213716_s_at, gene SECTM1): 1.603 fold
Fold Change cPLA2 inhibitor vs. no AG HV (probeset 214038_at, gene UNK_AI984980): 2.289 fold
Fold Change cPLA2 inhibitor vs. no AG HV (probeset 214179_s_at, gene NFE2L1): 1.302 fold
Fold Change cPLA2 inhibitor vs. no AG HV (probeset 214730_s_at, gene GLG1): 1.22 fold
Fold Change cPLA2 inhibitor vs. no AG HV (probeset 215051_x_at, gene AIF1): 1.464 fold
Fold Change cPLA2 inhibitor vs. no AG HV (probeset 215223_s_at, gene SOD2): 1.584 fold
Fold Change cPLA2 inhibitor vs. no AG HV (probeset 216336_x_at, gene UNK_AL031602): 1.748 fold
Fold Change cPLA2 inhibitor vs. no AG HV (probeset 216442_x_at, gene FN1): −15.6848 fold
Fold Change cPLA2 inhibitor vs. no AG HV (probeset 216841_s_at, gene SOD2): 1.463 fold
Fold Change cPLA2 inhibitor vs. no AG HV (probeset 217165_x_at, gene MT1F): 2.496 fold
Fold Change cPLA2 inhibitor vs. no AG HV (probeset 217965_s_at, gene HCNGP): 1.185 fold
Fold Change cPLA2 inhibitor vs. no AG HV (probeset 218154_at, gene FLJ12150): 1.267 fold
Fold Change cPLA2 inhibitor vs. no AG HV (probeset 218472_s_at, gene PELO): 1.163 fold
Fold Change cPLA2 inhibitor vs. no AG HV (probeset 219159_s_at, gene SLAMF7): 1.736 fold
Fold Change cPLA2 inhibitor vs. no AG HV (probeset 219519_s_at, gene SN): 2.441 fold
Fold Change cPLA2 inhibitor vs. no AG HV (probeset 219788_at, gene PILRA): 1.371 fold
Fold Change cPLA2 inhibitor vs. no AG HV (probeset 221165_s_at, gene IL22): 1.835 fold
Fold Change cPLA2 inhibitor vs. no AG HV (probeset 221558_s_at, gene LEF1): −1.137 fold
Fold Change cPLA2 inhibitor vs. no AG HV (probeset 221581_s_at, gene WBSCR5): 1.343 fold
Fold Change cPLA2 inhibitor vs. no AG HV (probeset 222218_s_at, gene PILRA): 1.292 fold
